# Assay results reported in publication PMC7156458, “Synthetic biology based construction of biological activity-related library of fungal decalin-containing diterpenoid pyrones” (Nature Communications, 2020).
# Target: Aβ42 (Homo sapiens, UniProt P05067)
# Assay: Th-T (thioflavin-T) assay of Aβ42 aggregation
# Format: biochemical
# Aβ42, sequence (P05067 672-713): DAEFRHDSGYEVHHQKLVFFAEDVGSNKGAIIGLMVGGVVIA
smiles,measurement,setting,value
C=C1CCC2C(C)(CCC=C(C)C)C(O)CCC2(C)C1Cc1c(OC)oc(C)c(C(=O)OC)c1=O (stereo not drawn) [Compound 14],"Fig. 7a Th-T reading, mean of three wells","column suffix _20, reading M101",1.75
same,"Fig. 7a Th-T reading, mean of three wells","column suffix _20, reading M102",1.725
same,"Fig. 7a Th-T reading, mean of three wells","column suffix _20, reading M103",1.692
same,"Fig. 7a Th-T reading, mean of three wells","column suffix _20, reading M104",1.726
same,"Fig. 7a Th-T reading, mean of three wells","column suffix _20, reading M105",1.714
same,"Fig. 7a Th-T reading, mean of three wells","column suffix _20, reading M106",1.718
same,"Th-T fluorescence, mean of three wells (Fig. 7a)","column suffix _50, measurement M19",0.5495
same,"Th-T fluorescence, mean of three wells (Fig. 7a)","column suffix _50, measurement M20",0.5788
same,"Th-T fluorescence, mean of three wells (Fig. 7a)","column suffix _50, measurement M21",0.6066
same,"Th-T fluorescence, mean of three wells (Fig. 7a)","column suffix _50, measurement M22",0.6351
same,"Th-T fluorescence, mean of three wells (Fig. 7a)","column suffix _50, measurement M23",0.669
same,"Th-T fluorescence, mean of three wells (Fig. 7a)","column suffix _50, measurement M24",0.7075
same,"Th-T fluorescence, mean of three wells (Fig. 7a)","column suffix _50, measurement M25",0.7535
same,"Th-T fluorescence, mean of three wells (Fig. 7a)","column suffix _50, measurement M26",0.8076
same,"Th-T fluorescence, mean of three wells (Fig. 7a)","column suffix _50, measurement M27",0.8688
same,"Th-T fluorescence, mean of three wells (Fig. 7a)","column suffix _50, measurement M28",0.9376
same,"Th-T fluorescence, mean of three wells (Fig. 7a)","column suffix _50, measurement M29",1.02
same,"Th-T assay signal, mean of three wells (Fig. 7a)","column suffix _50, reading M1",0.5105
same,"Th-T assay signal, mean of three wells (Fig. 7a)","column suffix _50, reading M2",0.462
same,"Th-T assay signal, mean of three wells (Fig. 7a)","column suffix _50, reading M3",0.4558
same,"Th-T assay signal, mean of three wells (Fig. 7a)","column suffix _50, reading M4",0.4485
same,"Th-T assay signal, mean of three wells (Fig. 7a)","column suffix _50, reading M5",0.4526
same,"Th-T assay signal, mean of three wells (Fig. 7a)","column suffix _50, reading M6",0.449
same,"Th-T assay signal, mean of three wells (Fig. 7a)","column suffix _50, reading M7",0.4479
same,"Th-T assay signal, mean of three wells (Fig. 7a)","column suffix _50, reading M8",0.4517
same,"Th-T assay signal, mean of three wells (Fig. 7a)","column suffix _50, reading M9",0.4533
same,"Th-T assay signal, mean of three wells (Fig. 7a)","column suffix _50, reading M10",0.4553
same,"Th-T assay signal, mean of three wells (Fig. 7a)","column suffix _50, reading M11",0.4593
same,"Th-T assay signal, mean of three wells (Fig. 7a)","column suffix _50, reading M12",0.4664
same,"Th-T assay signal, mean of three wells (Fig. 7a)","column suffix _50, reading M13",0.4713
same,"Th-T assay signal, mean of three wells (Fig. 7a)","column suffix _50, reading M14",0.4784
same,"Th-T assay signal, mean of three wells (Fig. 7a)","column suffix _50, reading M15",0.4927
same,"Th-T assay signal, mean of three wells (Fig. 7a)","column suffix _50, reading M16",0.5
same,"Th-T assay signal, mean of three wells (Fig. 7a)","column suffix _50, reading M17",0.5148
same,"Th-T assay signal, mean of three wells (Fig. 7a)","column suffix _50, reading M18",0.5358
same,"Fig. 7a Th-T reading, mean of three wells","column suffix _50, reading M85",2.033
same,"Fig. 7a Th-T reading, mean of three wells","column suffix _50, reading M86",1.994
same,"Fig. 7a Th-T reading, mean of three wells","column suffix _50, reading M87",1.943
same,"Fig. 7a Th-T reading, mean of three wells","column suffix _50, reading M88",1.897
same,"Fig. 7a Th-T reading, mean of three wells","column suffix _50, reading M89",1.8491
same,"Fig. 7a Th-T reading, mean of three wells","column suffix _50, reading M90",1.8142
same,"Fig. 7a Th-T reading, mean of three wells","column suffix _50, reading M91",1.746
same,"Fig. 7a Th-T reading, mean of three wells","column suffix _50, reading M92",1.726
same,"Fig. 7a Th-T reading, mean of three wells","column suffix _50, reading M93",1.698
same,"Fig. 7a Th-T reading, mean of three wells","column suffix _50, reading M94",1.676
same,"Fig. 7a Th-T reading, mean of three wells","column suffix _50, reading M95",1.616
same,"Fig. 7a Th-T reading, mean of three wells","column suffix _50, reading M96",1.587
same,"Fig. 7a Th-T reading, mean of three wells","column suffix _50, reading M97",1.553
same,"Fig. 7a Th-T reading, mean of three wells","column suffix _50, reading M98",1.5408
same,"Fig. 7a Th-T reading, mean of three wells","column suffix _50, reading M99",1.482
same,"Fig. 7a Th-T reading, mean of three wells","column suffix _50, reading M100",1.465
same,"Fig. 7a Th-T reading, mean of three wells","column suffix _50, reading M101",1.408
same,"Fig. 7a Th-T reading, mean of three wells","column suffix _50, reading M102",1.3987
same,"Fig. 7a Th-T reading, mean of three wells","column suffix _50, reading M103",1.372
same,"Fig. 7a Th-T reading, mean of three wells","column suffix _50, reading M104",1.353
same,"Fig. 7a Th-T reading, mean of three wells","column suffix _50, reading M105",1.325
same,"Fig. 7a Th-T reading, mean of three wells","column suffix _50, reading M106",1.281
same,"Th-T fluorescence, mean of three wells","compound at 10, reading M41 of time course",2.4889
same,"Th-T fluorescence, mean of three wells","compound at 10, reading M42 of time course",2.504
same,"Th-T fluorescence, mean of three wells","compound at 10, reading M43 of time course",2.483
same,"Th-T fluorescence, mean of three wells","compound at 10, reading M44 of time course",2.485
same,"Th-T fluorescence, mean of three wells","compound at 10, reading M45 of time course",2.494
same,"Th-T fluorescence, mean of three wells","compound at 10, reading M46 of time course",2.517
same,"Th-T fluorescence, mean of three wells","compound at 10, reading M47 of time course",2.535
same,"Th-T fluorescence, mean of three wells","compound at 10, reading M48 of time course",2.517
same,"Th-T fluorescence, mean of three wells","compound at 10, reading M49 of time course",2.512
same,"Th-T fluorescence, mean of three wells","compound at 10, reading M50 of time course",2.53
same,"Th-T fluorescence, mean of three wells","compound at 10, reading M51 of time course",2.541
same,"Th-T fluorescence, mean of three wells","compound at 10, reading M52 of time course",2.557
same,"Th-T fluorescence, mean of three wells","compound at 10, reading M53 of time course",2.545
same,"Th-T fluorescence, mean of three wells","compound at 10, reading M54 of time course",2.546
same,"Th-T fluorescence, mean of three wells","compound at 10, reading M55 of time course",2.573
same,"Th-T fluorescence, mean of three wells","compound at 10, reading M56 of time course",2.561
same,"Th-T fluorescence, mean of three wells","compound at 10, reading M57 of time course",2.58
same,"Th-T fluorescence, mean of three wells","compound at 10, reading M58 of time course",2.605
same,"Th-T fluorescence, mean of three wells","compound at 10, reading M59 of time course",2.634
same,"Th-T fluorescence, mean of three wells","compound at 10, reading M60 of time course",2.6643
same,"Th-T fluorescence, mean of three wells","compound at 10, reading M61 of time course",2.702
same,"Th-T fluorescence, mean of three wells","compound at 10, reading M62 of time course",2.713
same,"Th-T fluorescence, mean of three wells","compound at 20, reading M41 of time course",2.067
same,"Th-T fluorescence, mean of three wells","compound at 20, reading M42 of time course",2.077
same,"Th-T fluorescence, mean of three wells","compound at 20, reading M43 of time course",2.068
same,"Th-T fluorescence, mean of three wells","compound at 20, reading M44 of time course",2.111
same,"Th-T fluorescence, mean of three wells","compound at 20, reading M45 of time course",2.074
same,"Th-T fluorescence, mean of three wells","compound at 20, reading M46 of time course",2.138
same,"Th-T fluorescence, mean of three wells","compound at 20, reading M47 of time course",2.131
same,"Th-T fluorescence, mean of three wells","compound at 20, reading M48 of time course",2.161
same,"Th-T fluorescence, mean of three wells","compound at 20, reading M49 of time course",2.157
same,"Th-T fluorescence, mean of three wells","compound at 20, reading M50 of time course",2.15
same,"Th-T fluorescence, mean of three wells","compound at 20, reading M51 of time course",2.157
same,"Th-T fluorescence, mean of three wells","compound at 20, reading M52 of time course",2.143
same,"Th-T fluorescence, mean of three wells","compound at 20, reading M53 of time course",2.161
same,"Th-T fluorescence, mean of three wells","compound at 20, reading M54 of time course",2.178
same,"Th-T fluorescence, mean of three wells","compound at 20, reading M55 of time course",2.1338
same,"Th-T fluorescence, mean of three wells","compound at 20, reading M56 of time course",2.09
same,"Th-T fluorescence, mean of three wells","compound at 20, reading M57 of time course",2.136
same,"Th-T fluorescence, mean of three wells","compound at 20, reading M58 of time course",2.093
same,"Th-T fluorescence, mean of three wells","compound at 20, reading M59 of time course",2.054
same,"Th-T fluorescence, mean of three wells","compound at 20, reading M60 of time course",2.083
same,"Th-T fluorescence, mean of three wells","compound at 20, reading M61 of time course",2.064
same,"Th-T fluorescence, mean of three wells","compound at 20, reading M62 of time course",2.104
same,"Th-T fluorescence, mean of three wells","compound at 50, reading M41 of time course",4.082
same,"Th-T fluorescence, mean of three wells","compound at 50, reading M42 of time course",4.376
same,"Th-T fluorescence, mean of three wells","compound at 50, reading M43 of time course",4.613
same,"Th-T fluorescence, mean of three wells","compound at 50, reading M44 of time course",4.79
same,"Th-T fluorescence, mean of three wells","compound at 50, reading M45 of time course",4.938
same,"Th-T fluorescence, mean of three wells","compound at 50, reading M46 of time course",5.058
same,"Th-T fluorescence, mean of three wells","compound at 50, reading M47 of time course",5.101
same,"Th-T fluorescence, mean of three wells","compound at 50, reading M48 of time course",5.128
same,"Th-T fluorescence, mean of three wells","compound at 50, reading M49 of time course",5.105
same,"Th-T fluorescence, mean of three wells","compound at 50, reading M50 of time course",5.093
same,"Th-T fluorescence, mean of three wells","compound at 50, reading M51 of time course",4.998
same,"Th-T fluorescence, mean of three wells","compound at 50, reading M52 of time course",4.942
same,"Th-T fluorescence, mean of three wells","compound at 50, reading M53 of time course",4.822
